One data set concerns Phospholipidosis. The data set is described as follows: In vitro phospholipidosis at <20uM. It counts as ADME.
For data set [1], the system named is Mus musculus. Nature of the data set: Antidiabetic activity in db/db mouse assessed as reduction in glucose AUC at 10 mg/kg by oral glucose tolerance test relative to control. Type of data set: functional. Also noted: scale not given: the % may be the effect or the level left.
In data set [2] the test system is Rattus norvegicus. Nature of the data set: Antidiabetic activity in Zucker fa/fa rat assessed as reduction in glucose level at 0.3 mg/kg pretreated 2 hrs before glucose challenge measured after 40 mins by oral glucose tolerance test. It counts as functional. Also noted: scale not given: the % may be the effect or the level left.
Data set [3] in a line: Distribution coefficient, log D at pH 7.4. It counts as physicochemical. Conditions: octanol/water.
A short description of data set [4]: Permeability coefficient by PAMPA. Type of data set: ADME. For orientation: The PAMPA barrier holds no transporters, so it reflects passive diffusion.
For data set [5], the target named is T1, hERG (KCNH2) (Homo sapiens, UniProt Q12809). Nature of the data set: Inhibition of human ERG at 10 uM by patch clamp assay. (In general: In patch-clamp work, channel activity is measured electrically.)
T1 sequence (Q12809 whole entry, the tested form may be a part): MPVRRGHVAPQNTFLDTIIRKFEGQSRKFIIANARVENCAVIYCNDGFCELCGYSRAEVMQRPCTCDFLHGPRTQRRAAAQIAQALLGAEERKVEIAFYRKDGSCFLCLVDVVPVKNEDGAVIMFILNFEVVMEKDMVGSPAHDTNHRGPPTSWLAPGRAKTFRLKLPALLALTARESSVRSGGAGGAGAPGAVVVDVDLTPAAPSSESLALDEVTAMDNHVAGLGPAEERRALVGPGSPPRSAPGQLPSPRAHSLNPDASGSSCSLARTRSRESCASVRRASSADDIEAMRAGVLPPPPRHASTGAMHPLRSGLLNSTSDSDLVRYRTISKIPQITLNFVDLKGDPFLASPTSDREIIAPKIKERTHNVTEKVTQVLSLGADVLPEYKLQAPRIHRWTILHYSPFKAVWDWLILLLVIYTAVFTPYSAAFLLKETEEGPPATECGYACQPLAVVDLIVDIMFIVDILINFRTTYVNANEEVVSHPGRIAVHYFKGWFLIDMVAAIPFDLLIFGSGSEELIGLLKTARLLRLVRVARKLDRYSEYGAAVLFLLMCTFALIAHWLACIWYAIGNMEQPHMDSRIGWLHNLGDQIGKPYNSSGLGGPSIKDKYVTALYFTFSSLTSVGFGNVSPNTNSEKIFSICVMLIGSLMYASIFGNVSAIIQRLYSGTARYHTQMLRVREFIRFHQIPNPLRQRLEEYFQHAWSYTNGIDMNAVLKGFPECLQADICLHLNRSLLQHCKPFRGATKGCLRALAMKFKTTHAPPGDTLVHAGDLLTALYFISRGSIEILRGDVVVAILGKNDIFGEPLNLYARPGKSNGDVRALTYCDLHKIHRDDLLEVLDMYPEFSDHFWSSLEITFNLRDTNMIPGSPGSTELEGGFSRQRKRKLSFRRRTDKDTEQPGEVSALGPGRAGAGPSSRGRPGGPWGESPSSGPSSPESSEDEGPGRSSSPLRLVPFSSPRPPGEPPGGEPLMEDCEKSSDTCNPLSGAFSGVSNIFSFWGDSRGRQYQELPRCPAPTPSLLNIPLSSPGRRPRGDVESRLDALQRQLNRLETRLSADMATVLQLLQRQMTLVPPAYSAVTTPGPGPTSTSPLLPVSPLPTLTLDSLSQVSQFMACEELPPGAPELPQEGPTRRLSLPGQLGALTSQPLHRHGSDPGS
For data set [6], the system named is Rattus norvegicus. The data set is described as follows: Antidiabetic activity in Zucker fa/fa rat assessed as increase in glucose infusion rate at 20 mg/kg daily once for 7 days by euglycemic hyperinsulinemic clamp. It counts as functional, organism-based. Also noted: dose 20 mg/kg.
For data set [7], the system named is Mus musculus. Nature of the data set: Antidiabetic activity in db/db mouse assessed as reduction in fasting glucose level at 10 mg/kg. It counts as functional, organism-based. More on the design: dose 10 mg/kg.
Data set [8] deals with Cynomolgus monkey. Nature of the data set: Inhibition of DPP4 in cynomolgus monkey plasma assessed as remaining activity at 3 mg/kg, po after 24 hrs relative to control. Type of data set: functional, Macaca fascicularis.
Data set [9] can be described thus: Oral bioavailability in Wistar rat at 3 mg/kg. Type of data set: ADME, organism-based. Conditions: in vivo.
The species named for data set [10] is Rattus norvegicus. Nature of the data set: Renal clearance in rat as % of total clearance. It counts as ADME, organism-based, Kidney. The settings on record: in vivo.
The test system of data set [11] is Cynomolgus monkey. The data set is described as follows: Inhibition of DPP4 in cynomolgus monkey plasma assessed as remaining activity at 3 mg/kg, po after 48 hrs relative to control. Type of data set: functional, Macaca fascicularis.
Data set [12] addresses T1, hERG (KCNH2). Nature of the data set: Inhibition of human ERG by patch clamp assay.
Data set [13] in a line: Clearance in Wistar rat at 1 mg/kg, iv. Conditions: in vivo. It counts as ADME, organism-based. More on the design: dose 1 mg/kg, route intravenous.
The next data set concerns Rhesus monkey. The data set is described as follows: Renal clearance in monkey as % of total clearance. It counts as ADME, organism-based, Macaca mulatta, Kidney. The settings on record: in vivo.
The nature of data set [14]: Oral bioavailability in cynomolgus monkey at 3 mg/kg. It counts as ADME, organism-based, Macaca fascicularis. Conditions: in vivo.
Data set [15] in a line: Half life in Wistar rat at 1 mg/kg, iv. It counts as ADME, organism-based. More on the design: dose 1 mg/kg, route intravenous. Conditions: in vivo.
The nature of data set [16]: Half life in cynomolgus monkey at 1 mg/kg, iv. Type of data set: ADME, organism-based, Macaca fascicularis. Also noted: dose 1 mg/kg, route intravenous. The settings on record: in vivo.
The species named for a further data set is Canis familiaris. Nature of the data set: Renal clearance in dog as % of total clearance. It counts as ADME, organism-based, Canis lupus familiaris, Kidney. Conditions: in vivo.
Data set [17] in a line: Clearance in cynomolgus monkey at 1 mg/kg, iv. It counts as ADME, organism-based, Macaca fascicularis. Also noted: dose 1 mg/kg, route intravenous. The settings on record: in vivo.
Data set [18] can be described thus: Volume of distribution at steady state in Wistar rat at 1 mg/kg, iv. Type of data set: ADME, organism-based. Also noted: dose 1 mg/kg, route intravenous. Conditions: in vivo, read-out: Vdss.
Data set [19] in a line: Volume of distribution at steady state in cynomolgus monkey at 1 mg/kg, iv. Also noted: dose 1 mg/kg, route intravenous. Type of data set: ADME, organism-based, Macaca fascicularis. Conditions: in vivo, read-out: Vdss.
Data set [20] has as its system Rattus norvegicus. Nature of the data set: Antidiabetic activity in Zucker fa/fa rat assessed as reduction in hepatic glucose production at 20 mg/kg daily once for 7 days by euglycemic hyperinsulinemic clamp. It counts as functional.

Structures are written as SMILES. Active and inactive are the calls of the source.

The logD is lipophilicity at a set pH, counting ionised and neutral species. For the compound `COc1cc2c(cc1OC)[C@@H]1C[C@H](N)[C@@H](N3C[C@H](CF)CC3=O)CN1CC2`, the Phospholipidosis entry with Phospholipidosis was “Not Active”. The Activity is listed as 20% in the data set with Mus musculus [1] and 77% in the data set with Rattus norvegicus [2]. This compound showed a pH-dependent lipophilicity (logD) in data set [3] of -0.4. In data set [4], the permeability came out at 4 nm/s.
Turning to `COc1cc2c(cc1OC)C1CC(N)C(N3CC(C)CCC3=O)CN1CC2` (stereo not given), the Phospholipidosis result with Phospholipidosis was “Not Active”. Further, in the data set with Rattus norvegicus [2], the Activity stood at 34%. This compound returned a logD in data set [3] of 0. In [4], this compound gave a permeability of 11 nm/s.
In turn, `COc1cc2c(cc1OC)C1CC(N)C(N3CCCC3=O)CN1CC2` (stereo not given) returned a log distribution coefficient (logD) in data set [3] of -0.5. The same compound registered a permeability in data set [4] of 6 nm/s.
With `COc1cc2c(cc1OC)C1CC(N)C(N3CCCC[S+]3[O-])CN1CC2` (stereo not given), the Activity in the data set on Rattus norvegicus [2] came to 18%. The logD in data set [3] was -0.4. The compound also returned a permeability in data set [4] of 7 nm/s.
On to `COc1cc2c(cc1OC)[C@@H]1C[C@H](N)[C@@H](N3C[C@H](C)CC3=O)CN1CC2`, for which the Activity in the data set on Rattus norvegicus [2] stood at 46%. The compound further showed a logD in [3] of -0.3. In data set [4], the permeability stood at 8 nm/s.
For orientation: inhibition means the percentage by which the read-out fell short of the control. For `COc1cc2c(cc1OC)C1CC(N)C(N3CC(C)CC3=O)CN1CC2` (stereo not given), in the data set with Phospholipidosis, the Phospholipidosis result is “Not Active”. Moreover, the Activity in the data set on Rattus norvegicus [2] came out at 42%. For the same compound, the inhibition at 10 µM against hERG (KCNH2) [5] turned out to be 9%. In addition, the logD in data set [3] is -0.2. This compound also displayed a permeability in data set [4] of 2 nm/s.
For `COc1cc2c(cc1OC)[C@@H]1C[C@H](N)[C@@H](N3C[C@@H](C)CC3=O)CN1CC2`, the Phospholipidosis entry in the data set on Phospholipidosis is recorded as “Not Active”. Further, the figures for the Activity in the data set on Mus musculus [1] and in the data set with Rattus norvegicus [2] were 50% and 79%, respectively. For the same compound, the outcome in the data set on Rattus norvegicus [6] and with Mus musculus [7] was Active. The compound further registered a logD in data set [3] of -0.1. In data set [4], this compound displayed a permeability of 6 nm/s.
Turning to `COc1cc2c(cc1OC)C1CC(N)C(N3CCCOC3=O)CN1CC2` (stereo not given), in data set [3], the logD was -0.9. For the same compound, the permeability in data set [4] is 1 nm/s.
The corresponding values for `COc1cc2c(cc1OC)C1CC(N)C(N3CCOC3=O)CN1CC2` (stereo not given) are -0.8 and 0 nm/s.
In general, bioavailability refers to the share of a dose that reaches the circulation, judged against a reference dose that is usually intravenous. As usually defined, the IC20 is the point of the concentration-response curve where the effect stands at 20%. Usually clearance stands for the rate of elimination divided by the concentration. For orientation: half-life means the time needed for the level to fall by half in the phase considered. As to `COc1cc2c(cc1OC)[C@@H]1C[C@H](N)[C@@H](N3C[C@@H](CF)CC3=O)CN1CC2` [CARMEGLIPTIN], the Activity in the data set with Cynomolgus monkey [8] is given as 40%; in the data set on Mus musculus [1], 30%; in the data set with Cynomolgus monkey [11] it was 60%; with Rattus norvegicus [2], 66%; in the data set on Rattus norvegicus [20], 1.3 mg/min/kg. In the data set with Phospholipidosis, the Phospholipidosis entry is “Not Active”. For the same compound, the bioavailability in data set [9] was 28%; in data set [14], 33%. The Fraction cleared renally in the data set filed under Rattus norvegicus [10], with Rhesus monkey and in the data set filed under Canis familiaris was 30% each time. The compound further showed an IC20 at hERG (KCNH2) [12] of 21 µM. In addition, the values for the clearance in [13] and in data set [17] were 1.44 L/h/kg and 0.51 L/h/kg, respectively. For the same compound, the half-life was 5.3 h in data set [15] and 6.8 h in [16]. For the same compound, the outcome in the data set with Rattus norvegicus [6] and in the data set on Mus musculus [7] was Active. Moreover, the Vd in data set [18] came to 6.3 L/kg; in [19], 3.3 L/kg. This compound also had a logD in data set [3] of -0.5. Besides, the permeability in data set [4] came out at 1.3 nm/s.
`COc1cc2c(cc1OC)C1CC(N)C(N3CCC[S+]3[O-])CN1CC2` (stereo not given): the pH-dependent lipophilicity (logD) in [3] was -0.7. Besides, the permeability in data set [4] was determined as 12 nm/s.
Take `COc1cc2c(cc1OC)C1CC(N)C(N3CCCCC3=O)CN1CC2` (stereo not given): the Activity in the data set with Rattus norvegicus [2] is recorded as 33%. This compound registered a logD in [3] of -0.5. The compound also gave a permeability in data set [4] of 2 nm/s.
The like results for `COc1cc2c(cc1OC)C1CC(N)C(N3CCC(C)CC3=O)CN1CC2` (stereo not given) were, in that order, 16%, -0.2 and 5 nm/s.
As for `CCC1CC(=O)N(C2CN3CCc4cc(OC)c(OC)cc4C3CC2N)C1` (stereo not given), the Activity in the data set on Rattus norvegicus [2] came to 31%. Further, the inhibition at 10 µM against hERG (KCNH2) [5] was found to be 45%. This compound also had a pH-dependent lipophilicity (logD) in data set [3] of -0.1. The permeability in data set [4] was determined as 9 nm/s.
Consider `COc1cc2c(cc1OC)[C@@H]1C[C@H](N)[C@@H](N3CCCCC3=O)CN1CC2`, for which, in the data set on Phospholipidosis, the Phospholipidosis result was “Not Active”. For the same compound, the results for the bioavailability in [9] and in data set [14] were 47% and 64%, respectively. Besides, the figures for the clearance in data set [13] and in data set [17] were 1.5 L/h/kg and 1.12 L/h/kg, respectively. For the same compound, the Activity with Rattus norvegicus [2] is on record as 56%. Also, the figures for the half-life in [15] and in data set [16] were 4.5 h and 9.4 h, respectively. This compound also showed an inhibition at 10 µM against hERG (KCNH2) [5] of 45%. In addition, the values for the Vd in [18] and in data set [19] were 5.9 L/kg and 8.6 L/kg, respectively. Further, the log distribution coefficient (logD) in data set [3] was -0.5. For the same compound, in [4], the permeability came to 2 nm/s.

(Values after ChEMBL document CHEMBL1158517, “Discovery of carmegliptin: a potent and long-acting dipeptidyl peptidase IV inhibitor for the treatment of type 2 diabetes” (Bioorg Med Chem Lett, 2010).)
